Measurements reported in ChEMBL document CHEMBL4261625, “Flexibility of small molecular CD4 mimics as HIV entry inhibitors” (Bioorg Med Chem, 2018).

Tests used:
[1] = tested on: Human immunodeficiency virus 1; experiment: Antiviral activity against HIV1 cYTA48P infected in PM1/CCR5 cells by single round assay; type: functional, organism-based; conditions: Human immunodeficiency virus 1, cYTA48P
[2] = Cytotoxicity against human PM1 cells harboring CCR5 co-receptor by WST-8 assay; type: cell-based
[3] = target: Envelope glycoprotein gp160 (Human immunodeficiency virus 1) (UniProt Q6QLK5); experiment: Induction of conformational changes in HIV1 cYTA48P envelope glycoprotein gp120 infected in PM1/CCR5 cells assessed as mean fluorescence intensity using CD4i monoclonal antibody 4C11 at 100 uM after 15 mins by FACS analysis; type: cell-based
[4] = target: Envelope glycoprotein gp160 (Human immunodeficiency virus 1) (UniProt Q6QLK5); experiment: Induction of conformational changes in HIV1 cYTA48P envelope glycoprotein gp120 infected in PM1/CCR5 cells assessed as mean fluorescence intensity using CD4i monoclonal antibody 4C11 at 100 uM after 15 mins by FACS analysis relative to NBD-556; type: cell-based
[5] = tested on: Human immunodeficiency virus 1; experiment: Antiviral activity against HIV1 cYTA48P infected in PM1/CCR5 cells at 10 uM by single round assay; type: functional

Sequence of Envelope glycoprotein gp160 (Human immunodeficiency virus 1) (Q6QLK5 1-814): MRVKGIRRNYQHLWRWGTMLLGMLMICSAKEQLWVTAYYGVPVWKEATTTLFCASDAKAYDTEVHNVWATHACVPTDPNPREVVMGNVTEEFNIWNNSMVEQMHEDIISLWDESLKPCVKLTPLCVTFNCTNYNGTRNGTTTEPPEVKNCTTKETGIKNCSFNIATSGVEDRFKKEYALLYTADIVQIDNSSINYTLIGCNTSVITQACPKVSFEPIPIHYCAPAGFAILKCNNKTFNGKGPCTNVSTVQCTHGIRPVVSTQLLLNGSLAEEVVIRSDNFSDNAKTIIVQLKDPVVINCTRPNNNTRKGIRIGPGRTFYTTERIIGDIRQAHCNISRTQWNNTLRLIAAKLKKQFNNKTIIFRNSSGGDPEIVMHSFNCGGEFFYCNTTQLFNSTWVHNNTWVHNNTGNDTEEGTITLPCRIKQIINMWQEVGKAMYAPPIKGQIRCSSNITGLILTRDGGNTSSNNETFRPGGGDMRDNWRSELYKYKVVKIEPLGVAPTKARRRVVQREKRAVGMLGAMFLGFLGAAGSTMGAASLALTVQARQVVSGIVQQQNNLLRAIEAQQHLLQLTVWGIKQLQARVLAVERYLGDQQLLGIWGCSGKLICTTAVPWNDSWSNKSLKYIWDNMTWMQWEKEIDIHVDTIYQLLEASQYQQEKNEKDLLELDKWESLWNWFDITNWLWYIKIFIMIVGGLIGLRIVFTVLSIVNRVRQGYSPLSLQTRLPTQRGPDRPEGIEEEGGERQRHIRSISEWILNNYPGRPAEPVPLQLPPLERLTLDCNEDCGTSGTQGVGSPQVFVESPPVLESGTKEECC

Row | Compound | IC50 [1] | CC50 [2] | Flu intensity [3] | fold change (FC) [4] | Activity [5]
1 | CC1(C)CC(NC(=O)c2cc3c(F)c(Cl)ccc3[nH]2)CC(C)(C)N1 | > 10 µM | 19.4 µM | 8.55 | 0.68 | 32%
2 | CC1(C)CC(NC(=O)c2cc3cc(Cl)ccc3[nH]2)CC(C)(C)N1 | 3.65 µM | 48.6 µM | 8.7 | 0.82 | 
3 | CCOC(=O)C1CCN(C(=O)CNc2ccc(Cl)cc2)CC1 | > 100 µM |  | 23.8 | 0.081 | 
4 | CCOC(=O)C1CCN(C(=O)c2cc3cc(F)c(Cl)cc3n2C)CC1 | > 100 µM | 41.1 µM |  |  | 
5 | O=C(NC1CC2(CCCCC2)NC2(CCCCC2)C1)c1cc2c(F)c(Cl)ccc2[nH]1 (centres undefined) | 3.6 µM | 11.4 µM | 8.05 | 0.25 | 
6 | CCOC(=O)C1CCN(C(=O)c2cc3ccc(Cl)cc3n2C)CC1 | > 100 µM | 78.4 µM |  |  | 
7 | CC1(C)CC(NC(=O)c2cc3cc4c(cc3[nH]2)OCO4)CC(C)(C)N1 | 23 µM |  | 30.7 | 0.23 | 
8 | O=C(NC1CC2(CCCCC2)NC2(CCCCC2)C1)c1cc2ccc(Cl)cc2[nH]1 (centres undefined) | > 100 µM | 10.7 µM |  |  | 11%
9 | O=C(NC1CC2(CCCCC2)NC2(CCCCC2)C1)c1cc2cc3c(cc2[nH]1)OCO3 (centres undefined) | 1 µM | > 100 µM | 36.4 | 0.36 | 
10 | CCOC(=O)C1CCN(C(=O)c2cc3c(F)c(Cl)ccc3[nH]2)CC1 | > 100 µM | > 200 µM | 8.24 | 0.42 | 
11 | CCOC(=O)C1CCN(C(=O)c2cc3cc4c(cc3[nH]2)OCO4)CC1 | 63 µM |  | 26.2 | 0.13 | 
12 | O=C(CNc1ccc(Cl)cc1)NC1CC2(CCCCC2)NC2(CCCCC2)C1 (centres undefined) | 2.2 µM | > 100 µM | 19.6 |  | 
13 | Cn1c(C(=O)NC2CC(C)(C)NC(C)(C)C2)cc2ccc(Cl)cc21 | > 100 µM | 33.2 µM |  |  | 27%
14 | CCOC(=O)C1CCN(C(=O)c2cc3c(C)cc(C)cc3[nH]2)CC1 | > 100 µM | > 200 µM | 8.14 | 0.33 | 
15 | CCOC(=O)C1CCN(C(=O)CNc2ccc3c(c2)OCO3)CC1 | > 100 µM |  | 18.5 |  | 
16 | Cc1cc(C)c2cc(C(=O)NC3CC4(CCCCC4)NC4(CCCCC4)C3)n(C)c2c1 (centres undefined) | > 100 µM | > 13.5 µM | 7.96 | 0.17 | 
17 | Cc1cc(C)c2cc(C(=O)NC3CC(C)(C)NC(C)(C)C3)[nH]c2c1 | > 100 µM | 60.3 µM | 8.08 | 0.28 | 
18 | CC1(C)CC(NC(=O)c2cc3ccc(Cl)cc3[nH]2)CC(C)(C)N1 | > 100 µM | 37.4 µM |  |  | 

Row | Compound | IC50 [1] | CC50 [2] | Flu intensity [3] | fold change (FC) [4] | Activity [5]
19 | CCOC(=O)C1CCN(C(=O)c2cc3c(C)cc(C)cc3n2C)CC1 | > 100 µM | > 50.2 µM | 8.11 | 0.3 | 
20 | Cn1c(C(=O)NC2CC3(CCCCC3)NC3(CCCCC3)C2)cc2ccc(Cl)cc21 (centres undefined) | > 100 µM | 33.9 µM |  |  | 
21 | CC1(C)CC(NC(=O)CNc2ccc3c(c2)OCO3)CC(C)(C)N1 | > 30 µM |  | 23.4 | 0.073 | 
22 | Cn1c(C(=O)NC2CC(C)(C)NC(C)(C)C2)cc2cc(Cl)ccc21 | > 100 µM | 37.5 µM | 6.65 |  | 
23 | Cc1cc(C)c2cc(C(=O)NC3CC4(CCCCC4)NC4(CCCCC4)C3)[nH]c2c1 (centres undefined) | > 100 µM | 9.6 µM | 5.27 |  | 
24 | CC1(C)CC(NC(=O)CNc2ccc(Cl)cc2)CC(C)(C)N1 | 36.9 µM |  | 30.2 | 0.22 | 
25 | CCOC(=O)C1CCN(C(=O)c2cc3c(F)c(Cl)ccc3n2C)CC1 | > 100 µM | > 63.5 µM | 8.63 | 0.76 | 
26 | O=C(CNc1ccc2c(c1)OCO2)NC1CC2(CCCCC2)NC2(CCCCC2)C1 (centres undefined) | 10.8 µM |  | 28.7 | 0.19 | 
27 | CCOC(=O)C1CCN(C(=O)c2cc3cc(F)c(Cl)cc3[nH]2)CC1 | > 100 µM | 121 µM |  |  | 
28 | O=C(NC1CC2(CCCCC2)NC2(CCCCC2)C1)c1cc2cc(F)c(Cl)cc2[nH]1 (centres undefined) | > 100 µM | 11.3 µM |  |  | 
29 | Cn1c(C(=O)NC2CC3(CCCCC3)NC3(CCCCC3)C2)cc2c(F)c(Cl)ccc21 (centres undefined) | > 100 µM | 12.3 µM | 6.45 |  | 
30 | CC1(C)CC(NC(=O)c2cc3cc(F)c(Cl)cc3[nH]2)CC(C)(C)N1 | 88.7 µM | 103 µM |  |  | 
31 | CCOC(=O)C1CCN(C(=O)c2cc3ccc(Cl)cc3[nH]2)CC1 | > 100 µM | 52.6 µM |  |  | 
32 | Cn1c(C(=O)NC2CC(C)(C)NC(C)(C)C2)cc2c(F)c(Cl)ccc21 | > 100 µM | 13.9 µM | 6.74 |  | 32%
33 | Cn1c(C(=O)NC2CC(C)(C)NC(C)(C)C2)cc2cc(F)c(Cl)cc21 | > 100 µM | 18.7 µM |  |  | 
34 | Cn1c(C(=O)NC2CC3(CCCCC3)NC3(CCCCC3)C2)cc2cc(F)c(Cl)cc21 (centres undefined) | > 100 µM | 29.4 µM |  |  | 
35 | Cc1cc(C)c2cc(C(=O)NC3CC(C)(C)NC(C)(C)C3)n(C)c2c1 | > 100 µM | > 37.5 µM | 7.61 |  | 
36 | CC1(C)CC(NC(=O)C(=O)Nc2ccc(Cl)cc2)CC(C)(C)N1 | 0.63 µM | 70.4 µM | 8.91 |  | 
